Measured values reported in ChEMBL document CHEMBL1201862, “PubChem BioAssay data set” (2004).
Activity calls are given as the source filed them.

Key:
[1] = target: Sphingosine 1-phosphate receptor 2 (Homo sapiens, UniProt O95136); test: Dose Response Cell Based Assay for Antagonists of the S1P2 Receptor. [Related pubchem assays: 856, 736 ]; format: functional
[2] = target: Galanin receptor type 2 (Homo sapiens, UniProt O43603); test: Dose Response cell-based high-throughput screening assay to identify antagonists of galanin receptor 2 (GALR2). [Related pubchem assays: 828, 866 ]; format: functional
[3] = target: Protein Tat (Human immunodeficiency virus type 1 group M subtype B (isolate HXB2)(HIV-1), UniProt P04608); format: functional;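 note: tat binding to TAR RNA read out by fluorescence polarization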
[4] = target: fMet-Leu-Phe receptor (Homo sapiens, UniProt P21462); test: FPR ligands, dose response (AID 519); format: functional
[5] = target: Cytochrome P450 3A4 (Homo sapiens, UniProt P08684);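 note: CYP3A4 tested as one member of a cytochrome P450 panel screen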
[6] = target: Induced myeloid leukemia cell differentiation protein Mcl-1 (Homo sapiens, UniProt Q07820); format: functional
[7] = target: Mitogen-activated protein kinase 10 (Homo sapiens, UniProt P53779); test: Dose response biochemical screening assay for inhibitors of c-Jun N-Terminal Kinase 3 (JNK3). [Related pubchem assays: 746 ]
[8] = target: Paired box protein Pax-8 (Homo sapiens, UniProt Q06710); test: inhibitors of PAX8-driven TPO luciferase reporter, dose response, RMG-I cells, cherry-pick (AID 687027); format: functional, cell-based;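 note: luciferase reporter driven by Pax8 target thyroperoxidase promoter measured by SteadyGlo luminescence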
[9] = THP-1 cell cytotoxicity, dose response, cytotoxicity control for non-replicating M. tuberculosis project (AID 489025); format: functional
[10] = cells; format: functional
[11] = HepG2 cell cytotoxicity, dose response, cytotoxicity control for non-replicating M. tuberculosis project (AID 489018); format: functional; conditions: Mycobacterium tuberculosis
[12] = target: T1, Microphthalmia-associated transcription factor (Homo sapiens, UniProt O75030); test: TRPM1 promoter luciferase signal decrease, dose response, MITF inhibitor project, cell-based, SK-MEL-5, cherry-picked, set 3 (AID 493073); format: functional
T1 sequence (O75030 whole entry): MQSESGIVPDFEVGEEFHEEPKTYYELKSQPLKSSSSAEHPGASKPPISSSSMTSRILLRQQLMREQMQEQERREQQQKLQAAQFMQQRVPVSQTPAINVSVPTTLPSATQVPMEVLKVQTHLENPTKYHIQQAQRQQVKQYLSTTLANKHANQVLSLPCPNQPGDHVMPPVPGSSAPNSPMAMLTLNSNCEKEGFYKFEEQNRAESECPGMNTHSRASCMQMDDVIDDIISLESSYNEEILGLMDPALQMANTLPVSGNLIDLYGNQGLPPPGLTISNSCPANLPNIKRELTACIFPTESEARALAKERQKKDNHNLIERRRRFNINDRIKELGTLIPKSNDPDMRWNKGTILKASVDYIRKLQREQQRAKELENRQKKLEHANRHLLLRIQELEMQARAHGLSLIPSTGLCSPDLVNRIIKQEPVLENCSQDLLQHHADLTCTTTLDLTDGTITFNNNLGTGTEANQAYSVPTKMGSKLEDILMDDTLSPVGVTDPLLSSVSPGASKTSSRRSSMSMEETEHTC

[13] = Vero E6 cell cytotoxicity, dose response, cytotoxicity control for non-replicating M. tuberculosis project, secondary assay (AID 492998); format: functional, VeroE6; conditions: Vero C1008
[14] = inhibitors of PGC1a acetylation in cells, dose response, cell-based, cherry-picked samples (AID 720514); format: functional;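 note: potency may reflect raised or lowered acetylation signal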
[15] = target: Genome polyprotein (Hepatitis C virus, UniProt Q2Q167); test: HCV core protein dimerization inhibitors, dose response, biochemical, TR-FRET (AID 2159); set-up: species or system Hepacivirus hominis;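 note: blocks dimerization of HCV core protein measured by TR-FRET between tagged core106 pairs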
[16] = target: Glucose-6-phosphate 1-dehydrogenase (Homo sapiens, UniProt P11413); test: human G6PD enzyme inhibitors, dose response, selectivity assay for P. falciparum G6PD inhibitor project, biochemical, fluorescence (AID 504792); format: functional
[17] = cells
[18] = target: Major prion protein (Homo sapiens, UniProt P04156); format: functional, cell-based
[19] = HEp-2 cell cytotoxicity, dose response, cytotoxicity control for RSV inhibitor project, HTS (AID 2410); format: functional; conditions: human respiratory syncytial virus
[20] = target: Heat shock protein HSP 90-alpha (Homo sapiens, UniProt P07900); test: Luminescence-based dose response biochemical high throughput screening assay for inhibitors of the Heat Shock Protein 90 (HSP90). [Related pubchem assays: 1831 (Summary AID.), 1846 (Confirmation screen.), 1789 (Primary screen.)]
[21] = target: Large T antigen (Simian virus 40, UniProt P03070); format: functional, Betapolyomavirus macacae;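 note: Confirmatory-stage PubChem screen for compounds that inhibit SV40 T antigen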

With `O=C(Nc1ccc(F)cc1)c1sccc1S(=O)(=O)Cc1cccc(C(F)(F)F)c1` the IC50 [1] was 18.4 µM (not active).
For `O=C(Nc1ccc2[nH]c(-c3cccnc3)nc2c1)C12CC3CC(CC(C3)C1)C2`, the IC50 [2] was > 42 µM (not active).
With `CCOC(=O)C1=C(O)/C(=C/c2ccc(CNC(=O)C(=O)Nc3ccc(C)cc3)o2)N=C1C` the IC50 [3] was 47.8 µM (inconclusive).
For `O=C(NC1CCCCC1)c1sc(=S)n2c1[nH]c(=O)c1ccccc12`, the Ki [4] was 40.6 µM (inactive), the AC50 [5] was 0.794 µM (inconclusive) and the IC50 [6] was > 54 µM (active).
In the case of `Cc1cccc(-n2ncc3c(NCc4cccs4)ncnc32)c1`, the IC50 [7] is reported as 72 µM (not active).
In the case of `Cc1cccc(C2CC(c3ccc(Cl)cc3)Nc3nc(N)nn32)c1` (centres undefined), the Ki [4] is reported as > 66.7 µM (inactive).
In the case of `Cn1nnnc1Sc1ncnc2scc(-c3ccc[nH]3)c12`, the AC50 [8] is reported as 2.96 µM (active), the CC50 [9] is reported as 14.8 µM (active) and the IC50 [10] is reported as 15.2 µM (active). The CC50 [11] was 15.8 µM (active), the AC50 [12] was 7.32 µM (active) and the CC50 [13] was 13 µM (active). For the same molecule, the AC50 [14] was 7.84 µM (active).
In the case of `Brc1cc2[nH]cnc2c2ccccc12`, the IC50 [15] is reported as > 49.8 µM (not active), the IC50 [16] is reported as > 80 µM (inactive) and the IC50 [17] is reported as > 138 µM (inactive). For the same molecule, the IC50 [18] was 5.96 µM (active) and the CC50 [19] was 37.8 µM (active).
With `O=c1c2c(nc3n1CCCCC3)sc1c(O)cccc12` the IC50 [7] was 55.7 µM (not active).
For `C=CCc1ccc(OCc2ccc(C(=O)OC)o2)c(OC)c1`, the IC50 [20] was 7.02 µM (active).
For `CC(NC(=O)Nc1ccc(O)cc1)(C(F)(F)F)C(F)(F)F`, the IC50 [21] was 14.3 µM (active) and the IC50 [3] was 44.8 µM (inconclusive).
